Results on 5 molecules are retold here after patent EP0606506A1, “Beta-lactamase resistant antibacterial composition” (Kim, Yeong Sul, priority 1993, dated 1994).

Assay in all cases: Agar dilution MIC, in vitro antibacterial activity test
Common to all, as to format: cell-based
Background: In agar dilution the substance is mixed into plates at graded concentrations.

One experiment has as its system Escherichia coli DC 2. The conditions noted are these: DC2, 18 h. The procedure: (§1) The antibacterial activity of each of sulbactam and the compounds I, II, III and IV was measured according to the agar dilution method using Mueller Hinton agar. The compounds to be tested were diluted twice in stages and then introduced into the agar plate. On this agar plate the selected bacterial strains were inoculated and then incubated at 37 °C for 18 hours. The agar plate was then visually observed to determine the minimum concentration, at which the growth of bacterial strains was not observed, which is then designated as the MIC value of the relevant antibiotic compound.
(§2) In the same manner, the MIC value of the compound I, II, III or IV in the presence of sulbactam was measured. In this case, the concentration of sulbactam in each agar plate should be constantly maintained at about 13µg/ml, which corresponds to approximately a quarter of the MIC value of sulbactam, to ensure that the decrease in MIC value of the compounds I - IV in the presence of sulbactam is not affected by the antibacterial activity of sulbactam itself. […] As a result of this experiment, the MIC values of each of four kinds of antibiotics, i.e. the compound I, II, III or IV used alone and in the presence of sulbactam were compared to each other and then the synergistic effect of the composition of the present invention was estimated.

Experiment [1] deals with Staphylococcus aureus 285. The conditions noted are these: Staphylococcus aureus, 285, 18 h. The procedure: as §1, §2
A further experiment relates to Escherichia coli O 55. The conditions noted are these: O55, 18 h. How it is done:
as §1, §2

The test system of experiment [2] is Staphylococcus aureus 503. The conditions noted are these: Staphylococcus aureus, 503, 18 h. How it is done: as §1, §2
Another experiment relates to Escherichia coli TEM. The conditions noted are these: 18 h. The procedure: as §1, §2
Experiment [3] deals with Pseudomonas aeruginosa 1771 M. The conditions noted are these: 18 h. The procedure:
as §1, §2

For another experiment, the system named is Escherichia coli 1507 E. The conditions noted are these: 18 h. How it is done:
as §1, §2

A further experiment concerns Escherichia coli DC 0. The conditions noted are these: DC0, 18 h. How it is done:
as §1, §2

The mark [4] stands for this setting: read-out: MIC value, alone, Mueller Hinton agar, 37°C.
Where [5] appears, read: read-out: MIC value, in the presence of sulbactam(13μg/ml), Mueller Hinton agar, 37°C.
Where [6] appears, read: alone, Mueller Hinton agar, 37°C, read-out: MIC value.
Setting [7] is: in the presence of sulbactam(13μg/ml), Mueller Hinton agar, 37°C, read-out: MIC value.

Like-named read-outs stand apart in the source and are kept apart here.

For the molecule `CC1(C)S[C@@H]2C(NC(=O)[C@H](N)c3ccc(O)cc3)C(=O)N2[C@H]1C(=O)O` (stereo partly drawn) [compound I, 6-[D(-)-α-amino-p-hydroxyphenylacetamido]penicillanic acid], the MIC with Escherichia coli DC 2 (setting [4]) was 1.56 µg/mL; in the experiment with Escherichia coli DC 2 (setting [5]) it was 0.781 µg/mL; in experiment [1] (setting [6]), 1.56 µg/mL; in experiment [1] (setting [7]), 0.195 µg/mL; in the experiment with Escherichia coli O 55 (setting [6]), 1.56 µg/mL; in the experiment with Escherichia coli O 55 (setting [7]) it was less than 0.002 µg/mL. Also, the MIC in experiment [2] (setting [6]) is 1.56 µg/mL; in experiment [2] (setting [7]), 0.098 µg/mL; in the experiment on Escherichia coli TEM (setting [4]), greater than 100 µg/mL; in the experiment on Escherichia coli TEM (setting [5]), greater than 100 µg/mL; in experiment [3] (setting [6]), 0.098 µg/mL; in experiment [3] (setting [7]) it was 0.098 µg/mL. Also, the MIC in the experiment with Escherichia coli 1507 E (setting [6]) was determined as 3.12 µg/mL; with Escherichia coli 1507 E (setting [7]), 0.391 µg/mL; with Escherichia coli DC 0 (setting [6]) it was 6.25 µg/mL; in the experiment on Escherichia coli DC 0 (setting [7]), 0.781 µg/mL.

Regarding `C=N[C@@H](C(=O)NC1C(=O)N2[C@@H]1SC(C)(C)[C@@H]2C(=O)O)c1ccc(O)cc1` (stereo partly drawn) [compound II, 6-[D-2-(methyleneamino)-2-(4-hydroxyphenyl)acetamido]penicillanic acid], the MIC in the experiment with Escherichia coli DC 2 (setting [6]) was 1.56 µg/mL; in the experiment on Escherichia coli DC 2 (setting [7]), 0.781 µg/mL; in experiment [1] (setting [6]), 1.56 µg/mL; in experiment [1] (setting [7]), 0.195 µg/mL; in the experiment with Escherichia coli O 55 (setting [6]), 1.56 µg/mL; in the experiment with Escherichia coli O 55 (setting [7]), less than 0.002 µg/mL. The MIC in experiment [2] (setting [6]) is 1.56 µg/mL; in experiment [2] (setting [7]) it was 0.098 µg/mL; with Escherichia coli TEM (setting [4]) it was greater than 100 µg/mL; with Escherichia coli TEM (setting [5]), greater than 100 µg/mL; in experiment [3] (setting [6]), 0.195 µg/mL; in experiment [3] (setting [7]), 0.049 µg/mL. In addition, the MIC worked out at 6.25 µg/mL with Escherichia coli 1507 E (setting [6]), 0.098 µg/mL with Escherichia coli 1507 E (setting [7]), 6.25 µg/mL in the experiment on Escherichia coli DC 0 (setting [6]) and 3.12 µg/mL with Escherichia coli DC 0 (setting [7]).

Turning to `CCN1CCN(C(=O)N[C@@H](C(=O)NC2C(=O)N3[C@@H]2SC(C)(C)[C@@H]3C(=O)O)c2ccc(O)cc2)C(=O)C1=O` (stereo partly drawn) [compound III, 6-[D-2-(4-ethyl-2,3-dioxopiperazinocarbonylamino)-2-(4-hydroxyphenyl)acetamido]penicillanic acid], the MIC in the experiment on Escherichia coli DC 2 (setting [6]) is 0.098 µg/mL; in the experiment with Escherichia coli DC 2 (setting [7]), 0.025 µg/mL; in experiment [1] (setting [6]), 3.12 µg/mL; in experiment [1] (setting [7]), 0.781 µg/mL; in the experiment with Escherichia coli O 55 (setting [6]) it was 0.195 µg/mL; in the experiment on Escherichia coli O 55 (setting [7]) it was less than 0.002 µg/mL. The MIC in experiment [2] (setting [6]) is 6.25 µg/mL; in experiment [2] (setting [7]), 0.391 µg/mL; in the experiment with Escherichia coli TEM (setting [4]) it was greater than 100 µg/mL; in the experiment on Escherichia coli TEM (setting [5]), 1.56 µg/mL; in experiment [3] (setting [6]), 0.098 µg/mL; in experiment [3] (setting [7]), 0.025 µg/mL. Also, the MIC is 0.781 µg/mL in the experiment on Escherichia coli 1507 E (setting [6]), 0.098 µg/mL in the experiment with Escherichia coli 1507 E (setting [7]), 0.195 µg/mL in the experiment with Escherichia coli DC 0 (setting [7]) and 1.56 µg/mL with Escherichia coli DC 0 (setting [4]).

Consider `CNC(=O)C[C@@H](N)C(=O)N[C@@H](C(=O)N[C@@H]1C(=O)N2[C@@H]1SC(C)(C)[C@@H]2C(=O)O)c1ccc(O)cc1` [compound IV, 6-[D-2-(D-2-amino-3-N-methylcarbamoyl-propionamido)-2-p-hydroxyphenylacetamido]penicillanic acid], for which the MIC was 0.781 µg/mL in the experiment on Escherichia coli DC 2 (setting [4]); 0.195 µg/mL with Escherichia coli DC 2 (setting [5]); 6.25 µg/mL in experiment [1] (setting [4]); 1.56 µg/mL in experiment [1] (setting [5]); 0.781 µg/mL in the experiment on Escherichia coli O 55 (setting [4]); less than 0.002 µg/mL in the experiment on Escherichia coli O 55 (setting [5]). The MIC is 6.25 µg/mL in experiment [2] (setting [4]); 1.56 µg/mL in experiment [2] (setting [5]); greater than 100 µg/mL in the experiment with Escherichia coli TEM (setting [4]); 25 µg/mL with Escherichia coli TEM (setting [5]); 0.391 µg/mL in experiment [3] (setting [4]); 0.025 µg/mL in experiment [3] (setting [5]). The MIC worked out at 3.12 µg/mL in the experiment with Escherichia coli 1507 E (setting [4]), 0.098 µg/mL in the experiment with Escherichia coli 1507 E (setting [5]), 3.12 µg/mL in the experiment with Escherichia coli DC 0 (setting [4]) and 0.781 µg/mL with Escherichia coli DC 0 (setting [5]).

As for `CC1(C)[C@H](C(=O)O)N2C(=O)C[C@H]2S1(=O)=O` [sulbactam], the MIC in the experiment with Escherichia coli DC 2 (setting [4]) is 100 µg/mL; in experiment [1] (setting [4]) it was 100 µg/mL; in the experiment with Escherichia coli O 55 (setting [4]), 100 µg/mL; in experiment [2] (setting [4]), 100 µg/mL; with Escherichia coli TEM (setting [4]) it was greater than 100 µg/mL; in experiment [3] (setting [4]), 50 µg/mL. Also, the MIC in the experiment with Escherichia coli 1507 E (setting [4]) and with Escherichia coli DC 0 (setting [4]) was greater than 100 µg/mL each time.
